Measurements from PubChem BioAssay (NCI).
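Assay format: 96-well plates, 48-hour exposure. GI50: concentration for 50% inhibition of growth. TGI: total growth inhibition.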

Key:
Test in all cases: inhibition of tumour cell growth, NCI panel, 48 h
[1] = tested on: 786-0 renal
[2] = tested on: HCT-116 colon
[3] = tested on: MOLT-4 leukemia
[4] = tested on: SW-620 colon
[5] = tested on: HT29 colon
[6] = tested on: U251 CNS
[7] = tested on: HCT-15 colon
[8] = tested on: OVCAR-5 ovarian
[9] = tested on: SR leukemia
[10] = tested on: MALME-3M melanoma

COc1c(N2CCN(CN3C(=O)C(=Nc4ccc(S(=O)(=O)Nc5ncccn5)cc4)c4ccccc43)C(C)C2)c(F)cc2c(=O)c(C(=O)O)cn(C3CC3)c12 (stereo not given)
GI50 [1]: > 50 µM
TGI [1]: > 50 µM
GI50 [2]: 18.2 µM
TGI [2]: > 50 µM
GI50 [3]: 17 µM
TGI [3]: > 50 µM
GI50 [4]: 10.8 µM
TGI [4]: 39.4 µM
GI50 [5]: 22.3 µM
TGI [5]: > 50 µM
GI50 [6]: > 50 µM
TGI [6]: > 50 µM
GI50 [7]: 20.7 µM
TGI [7]: > 50 µM
GI50 [8]: > 50 µM
TGI [8]: > 50 µM
GI50 [9]: 12.5 µM
TGI [9]: > 50 µM

NC(C(=O)[O-])C(=O)[O-].NC1CCCCC1N.[Pt+4]
GI50 [1]: 5.79 µM
TGI [1]: > 100 µM
GI50 [2]: 2.49 µM
TGI [2]: 26.6 µM
GI50 [3]: 6.42 µM
TGI [3]: > 100 µM
GI50 [4]: 1.75 µM
TGI [4]: > 100 µM
GI50 [5]: 2.65 µM
TGI [5]: > 100 µM
GI50 [6]: 4.63 µM
TGI [6]: > 100 µM
GI50 [7]: 4.41 µM
TGI [7]: > 100 µM
GI50 [8]: 2.64 µM
TGI [8]: > 100 µM
GI50 [10]: 0.294 µM
TGI [10]: 2.92 µM

Cn1nc(-c2ccccc2)c(C(=O)/C=C/c2ccccc2)c(N2CCOCC2)c1=O
TGI [1]: 32.4 µM
TGI [2]: 32.8 µM
TGI [3]: 49.4 µM
TGI [4]: > 100 µM
TGI [5]: 33 µM
TGI [6]: 29.4 µM
TGI [7]: 57 µM

C=C1CC[C@@H]2[C@](C)(COC(C)=O)[C@H](OC(C)=O)CC[C@@]2(C)[C@@H]1CC(Nc1ccc(S(=O)(=O)Nc2nccc(C)n2)cc1)C1=CCOC1=O (stereo not given in full)
GI50 [1]: 2.27 µM
TGI [1]: 5.06 µM
GI50 [2]: 1.6 µM
TGI [2]: 3.56 µM
GI50 [3]: 3.22 µM
TGI [3]: 17.9 µM
GI50 [4]: 1.6 µM
TGI [4]: 3.68 µM
GI50 [5]: 2.02 µM
TGI [5]: 4.24 µM
GI50 [6]: 3.17 µM
TGI [6]: 10.7 µM
GI50 [7]: 1.79 µM
TGI [7]: 4.24 µM
GI50 [8]: 3.86 µM
TGI [8]: 12.8 µM
GI50 [9]: 0.753 µM
TGI [9]: > 100 µM

Cc1ccc(C(O)c2cnc(C)n2Cc2ccccc2)cc1 (stereo not given)
TGI [1]: > 100 µM
TGI [2]: > 100 µM
TGI [4]: > 100 µM
TGI [5]: > 100 µM
TGI [6]: > 100 µM
TGI [7]: > 100 µM
TGI [8]: > 100 µM
TGI [9]: > 100 µM
TGI [10]: > 100 µM

COc1nc2nccc-2c2occn12
TGI [1]: > 100 µM
TGI [2]: > 100 µM
TGI [3]: > 100 µM
TGI [4]: > 100 µM
TGI [5]: > 100 µM
TGI [6]: > 100 µM
TGI [7]: > 100 µM
TGI [8]: > 100 µM
TGI [10]: > 100 µM

CCc1cc(O)c(Cl)c(C)c1Cl
TGI [1]: 30.8 µM
TGI [2]: 31.5 µM
TGI [4]: 43.6 µM
TGI [5]: 39.1 µM
TGI [6]: 38.1 µM
TGI [7]: 34.6 µM
TGI [8]: 52.2 µM
TGI [10]: 42.7 µM

OCCCCCCOc1ccc(-c2cc(-c3ccccn3)nc(-c3ccccn3)c2)cc1
TGI [1]: 0.551 µM
TGI [2]: 1.48 µM
TGI [3]: 2.53 µM
TGI [4]: 14.7 µM
TGI [5]: 11.8 µM
TGI [6]: 1.6 µM
TGI [7]: > 33.1 µM
TGI [8]: 4.14 µM
TGI [10]: 9.38 µM

COc1ccc(NC(=O)c2cc(OC)c(OC)c(OC)c2)cc1
TGI [1]: > 100 µM
TGI [2]: > 100 µM
TGI [3]: > 100 µM
TGI [4]: > 100 µM
TGI [5]: > 100 µM
TGI [6]: > 100 µM
TGI [7]: > 100 µM
TGI [8]: > 100 µM
TGI [10]: 97.7 µM

CC(=O)[O-].CC(=O)[O-].[NH2-].[Pt+2].c1ccc2cnccc2c1
GI50 [1]: 37.9 µM
TGI [1]: > 100 µM
GI50 [2]: 15.1 µM
TGI [2]: 33.7 µM
GI50 [3]: 1.4 µM
TGI [3]: 27.3 µM
GI50 [4]: 16.2 µM
TGI [4]: 38.3 µM
GI50 [5]: 24.5 µM
TGI [5]: > 100 µM
GI50 [6]: 6.26 µM
TGI [6]: 20.3 µM
GI50 [7]: 16.9 µM
TGI [7]: 45.8 µM
GI50 [8]: > 100 µM
TGI [8]: > 100 µM
GI50 [10]: 12.9 µM
TGI [10]: > 100 µM

CC(C)NC(=O)OCCS(=O)c1c(Cl)c(Cl)nn1C (stereo not given)
TGI [1]: 72.6 µM
TGI [2]: > 100 µM
TGI [3]: > 100 µM
TGI [4]: > 100 µM
TGI [5]: > 100 µM
TGI [6]: > 100 µM
TGI [7]: 43.8 µM
TGI [8]: > 100 µM
TGI [9]: > 100 µM

CC(C)C1CC(O)O[C@@H]([C@@H](C)[C@H]2CC(=O)[C@@H]3[C@@H]4[C@@H](O)[C@H](O)[C@H]5[C@@H](O)[C@H](O)CC[C@]5(C)[C@H]4CC[C@]23C)C1 (stereo not given in full)
TGI [1]: > 100 µM
TGI [2]: > 100 µM
TGI [3]: > 100 µM
TGI [4]: > 100 µM
TGI [5]: > 100 µM
TGI [6]: > 100 µM
TGI [7]: > 100 µM
TGI [9]: > 100 µM
TGI [10]: > 100 µM

S=c1[nH]c2ccc(Br)cc2c(=S)n1-c1ccccc1
TGI [1]: 96.8 µM
TGI [2]: 43.9 µM
TGI [4]: > 100 µM
TGI [5]: 47.7 µM
TGI [6]: 48.4 µM
TGI [7]: 63.2 µM
TGI [8]: > 100 µM
TGI [10]: 32.1 µM

CN(C)CCOc1ccc2c(c1)C/C(=C/c1ncc([N+](=O)[O-])n1C)C2=O
TGI [1]: 26.4 µM
TGI [2]: > 19.6 µM
TGI [3]: > 22.6 µM
TGI [4]: 18.2 µM
TGI [5]: 4.92 µM
TGI [6]: 20.5 µM
TGI [7]: 3.92 µM
TGI [8]: 14.8 µM
TGI [10]: 5.23 µM

CCCCCCCCCc1cc(=O)c2ccc(O)cc2o1
TGI [1]: > 100 µM
TGI [2]: > 100 µM
TGI [3]: > 100 µM
TGI [4]: > 100 µM
TGI [5]: > 100 µM
TGI [6]: > 100 µM
TGI [8]: > 100 µM
TGI [9]: > 100 µM
TGI [10]: > 100 µM

CN(C)c1ccc2cc(-c3ccccc3F)c(N)nc2c1
GI50 [1]: 2.49 µM
TGI [1]: 14.3 µM
GI50 [2]: 0.454 µM
TGI [2]: 11 µM
GI50 [4]: 0.636 µM
TGI [4]: 17.2 µM
GI50 [5]: 0.529 µM
TGI [5]: 11 µM
GI50 [6]: 1.24 µM
TGI [6]: 12.7 µM
GI50 [7]: 0.469 µM
TGI [7]: 13.2 µM
GI50 [8]: 3.55 µM
TGI [8]: 17.8 µM
GI50 [9]: 0.491 µM
TGI [9]: 4.99 µM
GI50 [10]: 1.71 µM
TGI [10]: 15.9 µM

CCC12CCCC(=O)N1C(CO)C(c1ccccc1)O2 (stereo not given)
TGI [1]: > 100 µM
TGI [2]: > 100 µM
TGI [4]: > 100 µM
TGI [5]: > 100 µM
TGI [6]: > 100 µM
TGI [7]: > 100 µM
TGI [8]: > 100 µM
TGI [9]: > 100 µM
TGI [10]: > 100 µM

COc1cccc(C(=O)C2C(=O)N(C)CCc3ccccc32)c1OC (stereo not given)
TGI [1]: > 100 µM
TGI [2]: > 100 µM
TGI [3]: > 100 µM
TGI [4]: > 100 µM
TGI [5]: > 100 µM
TGI [6]: > 100 µM
TGI [7]: > 100 µM
TGI [10]: > 100 µM

O=C1C2=C(c3ccccc31)C(c1ccccc1)NC(=S)N2 (stereo not given)
TGI [1]: 85 µM
TGI [2]: > 100 µM
TGI [3]: > 100 µM
TGI [4]: > 100 µM
TGI [5]: > 100 µM
TGI [6]: > 100 µM
TGI [7]: > 100 µM
TGI [8]: > 100 µM
TGI [10]: > 100 µM

CCCCCCCCCCCC[n+]1ccc(CCCCCCCCC)cc1
GI50 [1]: 1.38 µM
TGI [1]: 3.07 µM
GI50 [9]: 1.47 µM
TGI [9]: 4.55 µM
